# Source: paper PMC5702617, “Novel peptide probes to assess the tensional state of fibronectin fibers in cancer” (Nature Communications, 2017)
# Residues, ends and D or L forms follow the SMILES beside them. *: point of attachment. X2 = N=c1ccc2c(-c3ccc(C(=O)NCCCCCN4C(=O)CC(*)C4=O)cc3C(=O)O)c3ccc(N)c(S(=O)(=O)O)c3oc-2c1S(=O)(=O)O
# How the values were obtained:
# relaxed Fn fibers = relaxed Fn fibers (Homo sapiens, UniProt P02751); assay: Single Fn fiber binding assay, relaxed fibers; details: relaxed fibers (7% strain), 30 fibers from three independent experiments, Student's t test
# From the text: (§1) Fn fibers were manually pulled from a concentrated droplet of Fn in PBS (95% unlabeled and 5% Cy5-labeled protein) using a sharp pipette tip and deposited onto a flexible silicone sheet (SMI, USA)[41], rinsed and rehydrated in PBS (schematically shown in Fig. 2c). For affinity measurement Fn fibers were deposited onto a pre-stretched sheet and subsequently relaxed to about a strain of 7% as defined earlier. For measurements of the strain-sensitive binding behavior, fibers were either relaxed or stretched (about 380% strain). […]
# Single Fn fiber samples were imaged with an Olympus FV 1000 confocal microscope (Olympus AG, Switzerland) using a 40× water immersion objective with a numerical aperture of 0.9. […] Samples were excited with a 488 nm laser and acceptor (Alexa-546) and donor (Alexa-488) signal was detected in two PMTs using a 12 nm detection bandwidth for donor (514–526 nm) and acceptor (566–578 nm)[25]. […]
# Images were analyzed using Fiji-ImageJ and Matlab (MathWorks, Switzerland). For the Fn fiber affinity study, the pixel-wise ratio of FnBPA5-Alexa- 488 signal intensity divided by Fn-Cy5 intensity was calculated for each fiber, if intensities were above a cut-off threshold and below saturation. […] Correction factors for donor bleed through and direct activation of the acceptor used for the analysis were experimentally assessed as shown in Supplementary Fig. 5b, c. […]
# [1] = target: relaxed and stretched Fn fibers (Homo sapiens, UniProt P02751); assay: Fn fiber stretch assay, relaxed vs stretched fibers; format: binding; details: relaxed (7% strain) vs stretched (380% strain) fibers, three independent experiments, p < 0.001
# From the text: as §1
# Images were analyzed using Fiji-ImageJ and Matlab (MathWorks, Switzerland). For the Fn fiber affinity study, the pixel-wise ratio of FnBPA5-Alexa- 488 signal intensity divided by Fn-Cy5 intensity was calculated for each fiber, if intensities were above a cut-off threshold and below saturation. […] Correction factors for donor bleed through and direct activation of the acceptor used for the analysis were experimentally assessed as shown in Supplementary Fig. 5b, c. […] FRET acceptor channel was corrected for donor bleed through which was measured to be ~20% of the acceptor intensity (Supplementary Fig. 5b). Further analysis such as FRET-Fn-FnBPA5/Fn ratio quantifications were carried out in MatLab.
# [2] = target: fibrillar Fn in human dermal fibroblast ECM (Homo sapiens, UniProt P02751); assay: Binding to ECM assembled by human dermal fibroblasts; format: cell-based; details: 5 μg ml−1 peptide, 1 h prior to fixation, confocal microscopy
# Method: Normal human dermal fibroblasts (PromoCell, Vitaris AG, Switzerland) were cultured in alpha minimum essential medium (α-MEM) with 10% fetal bovine serum from BioWest (Nuaillé, France), and split before reaching confluence. Cells were seeded onto Fn-coated 8-well chambered cover glasses (Nunc^TM Lab-Tek^TM Chambered Coverglass, Thermo Fisher Scientific, Reinach, Switzerland) at a density of 50 × 10^3 cells per cm^2 and allowed to attach to the surface before medium exchange to medium containing 50 μg ml^−1 Fn. Dependent on the experiment, a fraction of only 10% of exogenous Fn was double-labeled for FRET analysis to prevent intermolecular FRET. Cells in Figs. 2h and 3 were cultured for 48 h. […] After fixation with a 4% paraformaldehyde solution in PBS, the samples shown in Fig. 3 were stained using DAPI (Invitrogen^TM, Thermo Fisher Scientific, Switzerland) and were further analyzed by means of confocal microscopy, whereas samples shown in Fig. 2h were blocked by 4% donkey serum (Abcam, Switzerland) for 1 h at room temperature and fibronectin was stained using a rabbit polyclonal anti-fibronectin antibody (1:50 diluted, ab23750, Abcam, Switzerland). Samples shown in Fig. 2h were then incubated for 1 h with a donkey anti-rabbit Alexa-546 secondary antibody (Invitrogen^TM, Thermo Fisher Scientific, Switzerland).
# relaxed Fn fibers, sequence (P02751 32-2477): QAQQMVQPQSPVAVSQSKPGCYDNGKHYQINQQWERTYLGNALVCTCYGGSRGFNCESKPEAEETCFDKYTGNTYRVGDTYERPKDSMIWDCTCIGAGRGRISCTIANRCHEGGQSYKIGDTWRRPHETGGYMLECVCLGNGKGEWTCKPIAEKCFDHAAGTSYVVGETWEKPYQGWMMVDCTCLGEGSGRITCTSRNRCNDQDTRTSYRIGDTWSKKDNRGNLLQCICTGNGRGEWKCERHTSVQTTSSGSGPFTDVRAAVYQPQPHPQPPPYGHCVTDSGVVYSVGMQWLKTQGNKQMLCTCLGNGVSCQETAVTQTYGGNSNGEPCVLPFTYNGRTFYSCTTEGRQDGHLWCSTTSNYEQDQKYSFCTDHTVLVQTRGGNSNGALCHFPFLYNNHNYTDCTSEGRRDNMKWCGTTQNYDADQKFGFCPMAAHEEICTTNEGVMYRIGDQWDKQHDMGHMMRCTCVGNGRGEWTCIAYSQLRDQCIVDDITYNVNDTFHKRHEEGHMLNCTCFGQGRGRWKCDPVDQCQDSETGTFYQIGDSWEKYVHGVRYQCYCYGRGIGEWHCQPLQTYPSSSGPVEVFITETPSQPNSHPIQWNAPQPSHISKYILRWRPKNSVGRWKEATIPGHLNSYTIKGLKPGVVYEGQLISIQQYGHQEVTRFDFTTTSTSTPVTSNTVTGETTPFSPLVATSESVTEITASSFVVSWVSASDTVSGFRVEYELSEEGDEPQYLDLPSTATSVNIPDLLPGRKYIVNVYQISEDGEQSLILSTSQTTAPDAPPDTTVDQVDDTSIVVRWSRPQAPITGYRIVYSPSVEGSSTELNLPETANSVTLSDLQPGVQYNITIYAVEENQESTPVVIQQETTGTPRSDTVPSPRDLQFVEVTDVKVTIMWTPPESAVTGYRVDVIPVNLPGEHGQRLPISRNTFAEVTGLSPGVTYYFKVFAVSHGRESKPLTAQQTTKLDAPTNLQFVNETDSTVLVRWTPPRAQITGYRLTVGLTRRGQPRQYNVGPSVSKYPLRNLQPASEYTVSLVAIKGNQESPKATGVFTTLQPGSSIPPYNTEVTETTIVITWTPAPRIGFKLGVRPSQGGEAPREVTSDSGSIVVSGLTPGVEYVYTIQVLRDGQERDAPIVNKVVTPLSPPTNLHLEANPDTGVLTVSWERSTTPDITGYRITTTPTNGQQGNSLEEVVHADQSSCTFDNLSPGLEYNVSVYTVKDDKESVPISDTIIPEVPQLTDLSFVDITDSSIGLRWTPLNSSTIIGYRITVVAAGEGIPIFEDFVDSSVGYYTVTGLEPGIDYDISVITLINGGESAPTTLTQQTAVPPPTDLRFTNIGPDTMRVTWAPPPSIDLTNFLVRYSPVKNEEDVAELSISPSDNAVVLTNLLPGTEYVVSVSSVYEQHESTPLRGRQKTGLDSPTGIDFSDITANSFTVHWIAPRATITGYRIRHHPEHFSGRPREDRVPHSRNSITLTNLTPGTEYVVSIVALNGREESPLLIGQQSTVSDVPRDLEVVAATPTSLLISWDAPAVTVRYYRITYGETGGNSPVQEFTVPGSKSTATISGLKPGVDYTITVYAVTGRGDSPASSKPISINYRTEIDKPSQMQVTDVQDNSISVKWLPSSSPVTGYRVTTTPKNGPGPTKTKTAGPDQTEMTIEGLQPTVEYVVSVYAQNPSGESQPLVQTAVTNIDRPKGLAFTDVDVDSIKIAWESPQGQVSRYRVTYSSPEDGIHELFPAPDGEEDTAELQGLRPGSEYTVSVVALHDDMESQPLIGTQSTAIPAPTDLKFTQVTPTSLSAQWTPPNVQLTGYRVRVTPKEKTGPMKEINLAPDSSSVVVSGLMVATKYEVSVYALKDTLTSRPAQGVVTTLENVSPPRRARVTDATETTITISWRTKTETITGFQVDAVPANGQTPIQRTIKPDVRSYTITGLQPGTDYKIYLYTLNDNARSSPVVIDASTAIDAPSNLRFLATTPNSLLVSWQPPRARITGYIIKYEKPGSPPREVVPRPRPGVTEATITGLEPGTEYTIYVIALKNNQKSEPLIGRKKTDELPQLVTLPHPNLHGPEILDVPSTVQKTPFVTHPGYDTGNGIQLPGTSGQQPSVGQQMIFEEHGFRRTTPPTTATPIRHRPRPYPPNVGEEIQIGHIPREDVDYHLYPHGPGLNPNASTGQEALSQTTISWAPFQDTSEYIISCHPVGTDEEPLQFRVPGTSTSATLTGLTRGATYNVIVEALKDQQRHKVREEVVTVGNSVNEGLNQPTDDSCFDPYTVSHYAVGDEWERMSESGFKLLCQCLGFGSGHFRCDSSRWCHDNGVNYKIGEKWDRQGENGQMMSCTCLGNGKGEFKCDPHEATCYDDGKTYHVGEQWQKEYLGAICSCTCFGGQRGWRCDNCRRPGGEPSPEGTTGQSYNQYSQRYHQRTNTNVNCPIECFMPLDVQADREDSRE
# fibrillar Fn in human dermal fibroblast ECM, sequence (P02751 32-273 limits assumed): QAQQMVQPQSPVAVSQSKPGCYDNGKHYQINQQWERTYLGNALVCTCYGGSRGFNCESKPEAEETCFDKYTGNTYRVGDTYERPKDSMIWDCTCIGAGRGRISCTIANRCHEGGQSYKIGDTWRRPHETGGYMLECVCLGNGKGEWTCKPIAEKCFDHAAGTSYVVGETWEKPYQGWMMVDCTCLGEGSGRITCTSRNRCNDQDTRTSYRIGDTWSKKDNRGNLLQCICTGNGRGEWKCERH
# relaxed and stretched Fn fibers, sequence (P02751 32-2477): as the sequence (P02751 32-2477) above
smiles,measurement,setting,value
CC[C@H](C)[C@H](NC(=O)CNC(=O)[C@H](CCCCN)NC(=O)[C@@H](NC(=O)[C@H](CO)NC(=O)[C@H](CCC(=O)O)NC(=O)[C@H](CCC(=O)O)NC(=O)[C@H](CC(=O)O)NC(=O)[C@H](Cc1ccccc1)NC(=O)[C@H](CCC(=O)O)NC(=O)[C@@H](NC(=O)[C@H](CC(C)C)NC(=O)[C@H](CC(N)=O)NC(=O)[C@H](CO)NC(=O)[C@H](CCC(=O)O)NC(=O)[C@@H](NC(=O)[C@@H](NC(=O)[C@@H](NC(=O)[C@H](CCC(N)=O)NC(=O)CNC(=O)CNC(=O)CNC(=O)[C@@H](N)CSC1CC(=O)N(CCCCCNC(=O)c2ccc(-c3c4ccc(=N)c(S(=O)(=O)O)c-4oc4c(S(=O)(=O)O)c(N)ccc34)c(C(=O)O)c2)C1=O)C(C)C)[C@@H](C)O)[C@@H](C)O)C(C)C)[C@@H](C)O)C(=O)N[C@H](C(=O)N[C@H](C(=O)NCC(=O)N[C@@H](C)C(=O)N[C@H](C(=O)N[C@@H](CO)C(=O)N[C@@H](CC(=O)O)C(=O)N[C@@H](Cc1c[nH]cn1)C(=O)N[C@H](C(=O)N[C@H](C(=O)N[C@H](C(=O)N[C@@H](CCC(=O)O)C(=O)N[C@@H](CC(=O)O)C(=O)N[C@H](C(=O)N[C@@H](CCCCN)C(=O)O)[C@@H](C)O)C(C)C)[C@@H](C)O)[C@@H](C)O)C(C)C)[C@@H](C)O)C(C)C (stereo partly shown) [FnBPA5-Alexa488] (H-C(X2)GGGQVTTESNLVEFDEESTKGIVTGAVSDHTTVEDTK-OH; N-terminus and C-terminus assumed),binding to single relaxed Fn fibers (words),relaxed Fn fibers,significant higher binding
same,binding to single relaxed Fn fibers (words),relaxed Fn fibers; listed as FnBPA5-Alexa-488,significantly higher binding to Fn fibers than the scrambled control peptide
same,"strain-dependent binding, FnBPA5/Fn ratio",[1],significantly higher peptide binding of FnBPA5 to relaxed Fn fibers compared to stretched fibers
same,binding to fibroblast-assembled ECM,[2],Specific binding to fibrillar Fn
